Assay [1] has as its target T1, wild type AXL (wtAXL) receptor tyrosine kinase (Homo sapiens, UniProt P30530).
T1 construct: WtAXL cDNA was cloned into vector pLXSN(ESK) and transfected into Phoenix E packaging cells; expressed in transfected cells; host or cells: NIH3T3 N7 (mouse fibroblasts), retrovirally infected, clone 22
T1 sequence (P30530 26-894): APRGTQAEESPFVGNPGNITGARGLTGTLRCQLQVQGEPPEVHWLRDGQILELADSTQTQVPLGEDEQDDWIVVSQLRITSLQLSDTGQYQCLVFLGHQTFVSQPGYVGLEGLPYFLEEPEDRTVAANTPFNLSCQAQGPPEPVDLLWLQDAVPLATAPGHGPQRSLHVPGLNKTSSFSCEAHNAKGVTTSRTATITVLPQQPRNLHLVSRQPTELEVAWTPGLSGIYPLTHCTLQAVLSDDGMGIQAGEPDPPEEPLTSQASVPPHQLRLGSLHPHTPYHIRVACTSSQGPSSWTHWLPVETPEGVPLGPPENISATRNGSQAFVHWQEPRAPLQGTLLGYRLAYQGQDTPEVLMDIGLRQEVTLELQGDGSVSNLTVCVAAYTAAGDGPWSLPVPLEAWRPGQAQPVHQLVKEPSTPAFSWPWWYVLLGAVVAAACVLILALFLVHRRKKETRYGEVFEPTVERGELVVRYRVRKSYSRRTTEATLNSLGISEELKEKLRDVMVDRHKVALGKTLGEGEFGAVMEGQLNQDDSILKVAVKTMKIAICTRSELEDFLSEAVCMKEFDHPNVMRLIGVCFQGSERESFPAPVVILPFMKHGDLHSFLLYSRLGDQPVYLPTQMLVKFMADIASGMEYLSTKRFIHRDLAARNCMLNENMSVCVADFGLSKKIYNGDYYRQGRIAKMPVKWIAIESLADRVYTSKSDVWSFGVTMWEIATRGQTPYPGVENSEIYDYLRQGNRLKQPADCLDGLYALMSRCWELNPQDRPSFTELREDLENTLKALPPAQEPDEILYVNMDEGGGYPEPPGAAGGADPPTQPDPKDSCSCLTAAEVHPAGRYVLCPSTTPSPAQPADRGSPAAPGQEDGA
As to the kind of experiment: NIH-3T3-AXL cellular kinase assay (pY-AXL-ELISA). It counts as cell-based. The following applies: NIH-3T3-AXL (clone 22) cells, serum depleted, compounds 1 h; Table Ia. The procedure, abridged:
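Phospho-AXL was quantified by ELISA in lysates (4G10-biotin, streptavidin-AP, AttoPhos, 430/560 nm read at 90 min). The cells were monoclonal NIH3T3 lines stably transduced with human wtAXL, exposed to serial compound dilutions for 1 h before lysis.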
For orientation: An ELISA detects its analyte on a solid surface through an enzyme-linked reagent.

The subject of assay [2] is tumor cell. In words: Matrigel outgrowth assay/branching assay (Table Va). The class given is cell-based. The gist of the method:
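Cells (5000/well) were seeded onto polymerized 3 mg/ml Matrigel with compound at 3.125, 1.56 or 0.78 μM versus DMSO. Branching was imaged by inverted microscopy (5× objective) at 48, 72 and 96 h. Only concentrations giving total branching inhibition scored positive.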

Where [3] appears, read: Homo sapiens, C8161 cells, read-out: Total branching inhibition in Matrigel C8161.
Where [4] appears, read: Homo sapiens, Hs-578T, Hs578T cells, read-out: Total branching inhibition in Matrigel Hs578T.
The mark [5] stands for this setting: U118 cells, read-out: Total branching inhibition in Matrigel U118.
Where [6] appears, read: U138 cells, read-out: Total branching inhibition in Matrigel U138.

Read-outs that look alike come from different tables or passages of the source. Where only a bound is given, the exact number is not on record here.

`COc1cc2c(Oc3ccc(NS(=O)(=O)c4ccccc4[N+](=O)[O-])cc3F)ccnc2cc1OCCCN1CCCCC1` [Example 7, N-{3-Fluoro-4-[6-methoxy-7-(3-piperidin-1-yl-propoxy)-quinolin-4-yloxy]-phenyl}-2-nitro-benzenesulfonamide]: the IC50 is under 500 nM in assay [1]; at most 5000 nM in assay [2] (setting [3]); 5000 to 50000 nM in assay [2] (setting [4]); at most 5000 nM in assay [2] (setting [5]); 5000 to 50000 nM in assay [2] (setting [6]).

With `COc1cc2c(Oc3ccc(NS(=O)(=O)c4cccc(-c5ccccc5)c4)cc3F)ccnc2cc1OCCCN1CCCCC1` [Example 8, Biphenyl-3-sulfonic acid {3-fluoro-4-[6-methoxy-7-(3-piperidin-1-yl-propoxy)-quinolin-4-loxy]-phenyl}-amide], the IC50 in assay [1] was under 500 nM; in assay [2] (setting [3]) it was at most 5000 nM; in assay [2] (setting [4]), at most 5000 nM; in assay [2] (setting [5]), at most 5000 nM; in assay [2] (setting [6]), at most 5000 nM.

As for `COc1cc2c(Oc3ccc(NS(=O)(=O)c4cccc(Oc5ccccc5)c4)cc3F)ccnc2cc1OCCCN1CCCCC1` [Example 10, N-{3-Fluoro-4-[6-methoxy-7-(3-piperidin-1-yl-propoxy)-quinolin-4-yloxy]-phenyl}-3-phenoxy-benzenesulfonamide], the IC50 in assay [1] was under 500 nM; in assay [2] (setting [3]), at most 5000 nM; in assay [2] (setting [4]), at most 5000 nM; in assay [2] (setting [5]) it was at most 5000 nM; in assay [2] (setting [6]), 5000 to 50000 nM.

In assay [1], `COc1cc2c(Oc3ccc(NS(=O)(=O)c4ccc(F)c(F)c4F)cc3F)ccnc2cc1OCCCN1CCCC(C)C1` (stereo not drawn) [Example 49, 2,3,4-Trifluoro-N-(3-fluoro-4-{6-methoxy-7-[3-(3-methyl-piperidin-1-yl)-propoxy]-quinolin-4-yloxy}-phenyl)-benzenesulfonamide] yielded an IC50 of under 500 nM.

In turn, `COc1cc2c(Oc3ccc(NS(=O)(=O)c4c(Cl)cccc4Cl)cc3F)ccnc2cc1OCCCN1CCCC(C)C1` (stereo not drawn) [Example 51, 2,6-Dichloro-N-(3-fluoro-4-{6-methoxy-7-[3-(3-methyl-piperidin-1-yl)-propoxy]-quinolin-4-yloxy}-phenyl)-benzenesulfonamide] showed an IC50 in assay [1] of under 500 nM.

In the case of `COc1cc2c(Oc3ccc(NS(=O)(=O)c4cccc(Cl)c4F)cc3F)ccnc2cc1OCCCN1CCCC(C)C1` (stereo not drawn) [Example 54, 3-Chloro-2-fluoro-N-(3-fluoro-4-{6-methoxy-7-[3-(3-methyl-piperidin-1-yl)-propoxy]-quinolin-4-yloxy}-phenyl)-benzenesulfonamide], the IC50 in assay [1] was under 500 nM.

`COc1cc2c(Oc3ccc(NS(=O)(=O)c4ccccc4OC(F)(F)F)cc3F)ccnc2cc1OCCCN1CCCCC1` [Example 78, N-{3-Fluoro-4-[6-methoxy-7-(3-piperidin-1-yl-propoxy)-quinolin-4-yloxy]-phenyl}-2-trifluoromethoxy-benzenesulfonamide] came in with an IC50 in assay [1] of under 500 nM.

For the compound `COc1cc2c(Oc3ccc(NS(=O)(=O)c4c(Cl)cccc4Cl)cc3F)ccnc2cc1OCCN1CCOCC1` [Example 104, 2,6-Dichloro-N-{3-fluoro-4-[6-methoxy-7-(2-morpholin-4-yl-ethoxy)-quinolin-4-yloxy]-phenyl}-benzenesulfonamide], the IC50 in assay [1] was under 500 nM.

With `COc1cc2c(Oc3ccc(NS(=O)(=O)c4c(F)cccc4F)cc3F)ccnc2cc1OCCCN1CCN(C)CC1` [Example 110, 2,6-Difluoro-N-(3-fluoro-4-{6-methoxy-7-[3-(4-methyl-piperazin-1-yl)-propoxy]-quinolin-4-yloxy}-phenyl)-benzenesulfonamide], the IC50 in assay [1] is under 500 nM.

In turn, `COc1cc2c(Oc3ccc(NS(=O)(=O)c4cc(F)ccc4F)cc3Cl)ccnc2cc1OCCCN1CCN(C)CC1` [Example 112, N-(3-Chloro-4-{6-methoxy-7-[3-(4-methyl-piperazin-1-yl)-propoxy]-quinolin-4-yloxy}-phenyl)-2,5-difluoro-benzenesulfonamide] showed an IC50 in assay [1] of under 500 nM.

In assay [1], `COc1cc2c(Oc3ccc(NS(=O)(=O)c4c(Cl)cccc4Cl)cc3Cl)ccnc2cc1OCCCN1CCN(C)CC1` [Example 119, 2,6-Dichloro-N-(3-chloro-4-{6-methoxy-7-[3-(4-methyl-piperazin-1-yl)-propoxy]-quinolin-4-yloxy}-phenyl)-benzenesulfonamide] displayed an IC50 of under 500 nM.

Compound `COC(=O)c1sccc1S(=O)(=O)Nc1ccc(Oc2ccnc3cc(OCCCN4CCCCC4)c(OC)cc23)c(F)c1` [Example 155, 3-{3-Fluoro-4-[6-methoxy-7-(3-piperidin-1-yl-propoxy)-quinolin-4-yloxy]-phenylsulfamoyl}-thiophene-2-carboxylic acid methyl ester] returned an IC50 in assay [1] of under 500 nM.

`COC(=O)c1sccc1S(=O)(=O)Nc1ccc(Oc2ccnc3cc(OCCCN4CCC(C)CC4)c(OC)cc23)c(F)c1` [Example 156, 3-(3-Fluoro-4-{6-methoxy-7-[3-(4-methyl-piperidin-1-yl)-propoxy]-quinolin-4-yloxy}-phenylsulfamoyl)-thiophene-2-carboxylic acid methyl ester] came in with an IC50 in assay [1] of under 500 nM.

As to `COC(=O)c1sccc1S(=O)(=O)Nc1ccc(Oc2ccnc3cc(OCCCN4CCOCC4)c(OC)cc23)c(F)c1` [Example 157, 3-{3-Fluoro-4-[6-methoxy-7-(3-morpholin-4-yl-propoxy)-quinolin-4-yloxy]-phenylsulfamoyl}-thiophene-2-carboxylic acid methyl ester], the IC50 in assay [1] was under 500 nM.

In assay [1], `COC(=O)c1sccc1S(=O)(=O)Nc1ccc(Oc2ccnc3cc(OCCCN4CCN(C)CC4)c(OC)cc23)c(F)c1` [Example 158, 3-(3-Fluoro-4-{6-methoxy-7-[3-(4-methyl-piperazin-1-yl)-propoxy]-quinolin-4-yloxy}-phenylsulfamoyl)-thiophene-2-carboxylic acid methyl ester] returned an IC50 of under 500 nM.

`COc1cc2c(Oc3ccc(NS(=O)(=O)c4c(F)cccc4F)cc3F)ccnc2cc1OCCCN(C)C` [Example 178, N-{4-[7-(3-Dimethylamino-propoxy)-6-methoxy-quinolin-4-yloxy]-3-fluoro-phenyl}-2,6-difluoro-benzenesulfonamide] yielded an IC50 in assay [1] of under 500 nM.

Turning to `COc1cc2c(Oc3ccc(NS(=O)(=O)c4ccccc4OC(F)(F)F)cc3F)ccnc2cc1OCCCN(C)C` [Example 179, N-{4-[7-(3-Dimethylamino-propoxy)-6-methoxy-quinolin-4-yloxy]-3-fluoro-phenyl}-2-trifluoromethoxy-benzenesulfonamide], in assay [1], the IC50 is under 500 nM.

Turning to `COc1cc2c(Oc3ccc(NS(=O)(=O)c4c(Cl)cccc4Cl)cc3F)ccnc2cc1OCCCN(C)C` [Example 181, 2,6-Dichloro-N-{4-[7-(3-dimethylamino-propoxy)-6-methoxy-quinolin-4-yloxy]-3-fluoro-phenyl}-benzenesulfonamide], the IC50 in assay [1] is under 500 nM.

Turning to `COC(=O)c1sccc1S(=O)(=O)Nc1ccc(Oc2ccnc3cc(OCCCN(C)C)c(OC)cc23)c(F)c1` [Example 184, 3-{4-[7-(3-Dimethylamino-propoxy)-6-methoxy-quinolin-4-yloxy]-3-fluoro-phenylsulfamoyl}-thiophene-2-carboxylic acid methyl ester], the IC50 in assay [1] is under 500 nM.

For the compound `COc1cc2c(Oc3c(Cl)cc(NS(=O)(=O)c4c(F)cccc4F)cc3Cl)ccnc2cc1OCCCN1CCC(C)CC1` [Example 209, N-(3,5-Dichloro-4-{6-methoxy-7-[3-(4-methyl-piperidin-1-yl)-propoxy]-quinolin-4-yloxy}-phenyl)-2,6-difluoro-benzenesulfonamide], in assay [1], the IC50 is under 500 nM.

`COc1cc2c(Oc3c(Cl)cc(NS(=O)(=O)c4ccccc4C(F)(F)F)cc3Cl)ccnc2cc1OCCCN1CCC(C)CC1` [Example 210, N-(3,5-Dichloro-4-{6-methoxy-7-[3-(4-methyl-piperidin-1-yl)-propoxy]-quinolin-4-yloxy}-phenyl)-2-trifluoromethyl-benzenesulfonamide] registered an IC50 in assay [1] of under 500 nM.

Source of the values: patent US9169241B2, “Quinolinyloxyphenylsulfonamides” (Max-Planck-Gesellschaft Zur Forderung der Wissenschaften …, priority 2009, dated 2015).
